Our source for the IC50 values is ChEMBL document CHEMBL4477234, “Potent Suppressive Effects of 1-Piperidinylimidazole Based Novel P2X7 Receptor Antagonists on Cancer Cell Migration and Invasion” (J Med Chem, 2016).

What is called IC50 is the concentration needed to halve the response being measured.

Each structure is given as a SMILES string.

One experiment has as its target T1, P2X purinoceptor 7 (Homo sapiens, UniProt Q99572).
T1 sequence (Q99572 whole entry): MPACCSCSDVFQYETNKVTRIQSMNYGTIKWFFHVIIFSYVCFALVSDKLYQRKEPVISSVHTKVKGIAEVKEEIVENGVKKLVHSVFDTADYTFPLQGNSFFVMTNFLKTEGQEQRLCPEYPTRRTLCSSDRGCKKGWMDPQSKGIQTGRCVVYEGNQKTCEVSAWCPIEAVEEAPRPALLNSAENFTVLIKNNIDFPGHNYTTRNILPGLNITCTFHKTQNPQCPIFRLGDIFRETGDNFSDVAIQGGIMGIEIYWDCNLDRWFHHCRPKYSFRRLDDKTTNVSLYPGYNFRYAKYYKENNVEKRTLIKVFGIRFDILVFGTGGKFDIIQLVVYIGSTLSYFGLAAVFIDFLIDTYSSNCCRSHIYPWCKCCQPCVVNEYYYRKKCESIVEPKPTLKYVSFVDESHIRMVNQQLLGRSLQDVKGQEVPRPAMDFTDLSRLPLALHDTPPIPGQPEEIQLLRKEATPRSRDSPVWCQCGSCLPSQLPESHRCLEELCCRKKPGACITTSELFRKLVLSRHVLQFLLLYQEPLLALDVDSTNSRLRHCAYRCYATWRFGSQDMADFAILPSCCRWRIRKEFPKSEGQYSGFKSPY
The experiment can be described thus: Antagonist activity at human P2X7 receptor expressed in HEK293 cells assessed as inhibition of BzATP-induced EtBr uptake measured after 2 hrs by fluorescence analysis. In kind it is cell-based.
For the compound `O=C(Oc1ccc(-c2cncn2C2CCN(C(=O)c3ccc(Cl)c(C(F)(F)F)c3)CC2)cc1)c1cccc2cnccc12`, the IC50 is above 10000 nM.

Consider `O=C(c1ccc([N+](=O)[O-])cc1)N1CCN(c2cc(=O)[nH]c(=O)n2Cc2ccc(OS(=O)(=O)c3cccc4cnccc34)cc2)CC1`, for which the IC50 is 27 nM.

Take `O=C(c1ccc(Cl)c(C(F)(F)F)c1)N1CCN(c2cc(=O)[nH]c(=O)n2Cc2ccc(OS(=O)(=O)c3cccc4cnccc34)cc2)CC1`: the half-maximal inhibitory concentration (IC50) was 40 nM.

As for `CC(C)(O)c1ccc(C(=O)N2CCC(n3cncc3-c3ccc(OS(=O)(=O)c4cccc5cnccc45)cc3)CC2)cc1`, the IC50 was 109 nM.

Consider `CS(=O)(=O)c1ccc(C(=O)N2CCC(n3cncc3-c3ccc(OS(=O)(=O)c4cccc(C(=O)NC5CC5)c4)cc3)CC2)cc1`, for which the IC50 was 400 nM.

With `COc1ccc(C(=O)N2CCC(n3cncc3-c3ccc(OS(=O)(=O)c4cccc5cnccc45)cc3)CC2)cc1`, the IC50 worked out at 77 nM.

As for `CS(=O)(=O)c1ccc(C(=O)N2CCN(c3cc(=O)[nH]c(=O)n3Cc3ccc(OS(=O)(=O)c4cccc5cnccc45)cc3)CC2)cc1`, the IC50 came out at 44 nM.

Turning to `O=C(c1ccc(Cl)c(C(F)(F)F)c1)N1CCC(n2cncc2-c2ccc(OS(=O)(=O)c3cccc([N+](=O)[O-])c3)cc2)CC1`, the IC50 was 249 nM.

Consider `CNC(=O)c1cccc(S(=O)(=O)Oc2ccc(-c3cncn3C3CCN(C(=O)c4ccc([N+](=O)[O-])cc4)CC3)cc2)c1`, for which the IC50 was 62 nM.

With `O=C(c1ccc(Cl)c(C(F)(F)F)c1)N1CCC(n2cncc2-c2ccc(OS(=O)(=O)c3cccs3)cc2)CC1`, the IC50 was determined as 238 nM.

For the compound `O=C(c1ccc(Cl)c(C(F)(F)F)c1)N1CCC(c2nc3cc(OS(=O)(=O)c4cccc5cnccc45)ccc3[nH]2)CC1`, the IC50 was determined as 31 nM.

For the compound `CS(=O)(=O)c1ccc(C(=O)N2CCC(n3cncc3-c3ccc(OS(=O)(=O)c4cccc5cnccc45)cc3)CC2)cc1`, the IC50 was determined as 25 nM.

Turning to `O=C(Oc1ccc(-c2cncn2C2CCN(C(=O)c3ccc(Cl)c(C(F)(F)F)c3)CC2)cc1)c1cccs1`, the IC50 is above 10000 nM.

Regarding `COc1ccc(C(=O)N2CCC(n3cncc3-c3ccc(OS(=O)(=O)c4cccc(C(=O)NC5CC5)c4)cc3)CC2)cc1`, the IC50 was found to be 244 nM.

On to `O=C(c1ccc(Cl)c(C(F)(F)F)c1)N1CCC(n2cncc2-c2ccc(OS(=O)(=O)c3cccc(Br)c3)cc2)CC1`, for which the IC50 stood at 896 nM.

For the compound `CNC(=O)c1cccc(S(=O)(=O)Oc2ccc(-c3cncn3C3CCN(C(=O)c4ccc(OC)cc4)CC3)cc2)c1`, the IC50 was determined as 159 nM.

For the compound `CC(=O)Oc1ccc(-c2cncn2C2CCN(C(=O)c3ccc(Cl)c(C(F)(F)F)c3)CC2)cc1`, the IC50 is above 10000 nM.

`N#Cc1ccc(C(=O)N2CCC(n3cncc3-c3ccc(OS(=O)(=O)c4cccc5cnccc45)cc3)CC2)cc1`: the IC50 turned out to be 269 nM.

With `Nc1cccc(S(=O)(=O)Oc2ccc(-c3cncn3C3CCN(C(=O)c4ccc(Cl)c(C(F)(F)F)c4)CC3)cc2)c1`, the IC50 amounted to 565 nM.

As for `CS(=O)(=O)Oc1ccc(-c2cncn2C2CCN(C(=O)c3ccc(Cl)c(C(F)(F)F)c3)CC2)cc1`, the IC50 was determined as 1570 nM.

As for `O=C(NC1CC1)c1cccc(S(=O)(=O)Oc2ccc(-c3cncn3C3CCN(C(=O)c4ccc([N+](=O)[O-])cc4)CC3)cc2)c1`, the IC50 amounted to 152 nM.

Take `CNC(=O)c1cccc(S(=O)(=O)Oc2ccc(-c3cncn3C3CCN(C(=O)c4ccc(N(C)C)cc4)CC3)cc2)c1`: the IC50 is 25 nM.

Regarding `CCN(CC)C(=O)c1cccc(S(=O)(=O)Oc2ccc(-c3cncn3C3CCN(C(=O)c4ccc(Cl)c(C(F)(F)F)c4)CC3)cc2)c1`, the IC50 turned out to be 202 nM.

`O=C(Oc1ccc(-c2cncn2C2CCN(C(=O)c3ccc(Cl)c(C(F)(F)F)c3)CC2)cc1)c1ccccc1`: the IC50 was above 10000 nM.

As to `CN(C)c1ccc(C(=O)N2CCC(c3nc4cc(OS(=O)(=O)c5cccc6cnccc56)ccc4[nH]3)CC2)cc1`, the IC50 was 41 nM.

For `CS(=O)(=O)c1ccc(C(=O)N2CCC(n3cncc3-c3ccc(OS(=O)(=O)c4cccc(C#N)c4)cc3)CC2)cc1`, the IC50 stood at 143 nM.

With `CNC(=O)c1cccc(S(=O)(=O)Oc2ccc(-c3cncn3C3CCN(C(=O)c4ccc(S(C)(=O)=O)cc4)CC3)cc2)c1`, the IC50 was 202 nM.

For the compound `COc1ccc(C(=O)N2CCC(n3cncc3-c3ccc(OS(=O)(=O)c4cccc(C#N)c4)cc3)CC2)cc1`, the IC50 was found to be 312 nM.

`O=C(NC1CC1)c1cccc(S(=O)(=O)Oc2ccc(-c3cncn3C3CCN(C(=O)c4ccc(Cl)c(C(F)(F)F)c4)CC3)cc2)c1`: the IC50 is 88 nM.

Take `N#Cc1cccc(S(=O)(=O)Oc2ccc(-c3cncn3C3CCN(C(=O)c4ccc(Cl)c(C(F)(F)F)c4)CC3)cc2)c1`: the IC50 is 73 nM.

As for `CC(C)c1ccc(C(=O)N2CCC(n3cncc3-c3ccc(OS(=O)(=O)c4cccc5cnccc45)cc3)CC2)cc1`, the IC50 was found to be 55 nM.

As to `CNC(=O)c1cccc(S(=O)(=O)Oc2ccc(-c3cncn3C3CCN(C(=O)c4ccc(Cl)c(C(F)(F)F)c4)CC3)cc2)c1`, the IC50 was found to be 112 nM.

In the case of `CN(C)c1ccc(C(=O)N2CCC(n3cncc3-c3ccc(OS(=O)(=O)c4cccc(C#N)c4)cc3)CC2)cc1`, the IC50 was 32 nM.

Consider `O=C(c1ccc(Cl)c(C(F)(F)F)c1)N1CCC(n2cncc2-c2ccc(OS(=O)(=O)c3cccc4cnccc34)cc2)CC1`, for which the IC50 was 45 nM.

As to `O=C(c1ccc([N+](=O)[O-])cc1)N1CCC(n2cncc2-c2ccc(OS(=O)(=O)c3cccc4cnccc34)cc2)CC1`, the IC50 is 1.49 nM.

Take `CN(C)c1cccc(C(=O)N2CCC(n3cncc3-c3ccc(OS(=O)(=O)c4cccc5cnccc45)cc3)CC2)c1`: the IC50 amounted to 155 nM.

For the compound `O=C(c1ccc([N+](=O)[O-])cc1)N1CCC(c2nc3cc(OS(=O)(=O)c4cccc5cnccc45)ccc3[nH]2)CC1`, the IC50 is 13 nM.

In the case of `N#Cc1cccc(S(=O)(=O)Oc2ccc(-c3cncn3C3CCN(C(=O)c4ccc([N+](=O)[O-])cc4)CC3)cc2)c1`, the IC50 came to 45 nM.

As to `O=C(c1ccc(Oc2ccccc2)cc1)N1CCC(n2cncc2-c2ccc(OS(=O)(=O)c3cccc4cnccc34)cc2)CC1`, the IC50 is 187 nM.

With `O=C(c1ccc(Cl)c(C(F)(F)F)c1)N1CCC(n2cncc2-c2ccc(OS(=O)(=O)c3cccc4ccccc34)cc2)CC1`, the IC50 amounted to 3520 nM.

Consider `COc1ccc(C(=O)N2CCC(n3cncc3-c3ccc(OS(=O)(=O)c4cccc5cnccc45)cc3)CC2)cc1OC`, for which the IC50 turned out to be 259 nM.

Turning to `CCN(CC)c1ccc(C(=O)N2CCC(n3cncc3-c3ccc(OS(=O)(=O)c4cccc5cnccc45)cc3)CC2)cc1`, the IC50 was 1440 nM.

With `O=C(c1ccc(Cl)c(C(F)(F)F)c1)N1CCC(n2cncc2-c2ccc(OS(=O)(=O)c3ccccc3)cc2)CC1`, the IC50 is 702 nM.

For another experiment, the target named is T1, P2X purinoceptor 7. The experiment can be described thus: Antagonist activity at human P2X7 receptor in LPS/IFN-gamma-differentiated human THP-1 cells assessed as suppression of BzATP-stimulated IL-1beta release per-incubated for 30 mins before BzATP addition and measured after 30 mins by ELISA. It counts as cell-based. For orientation: ELISA stands for enzyme-linked immunosorbent assay.
For the compound `O=C(c1ccc([N+](=O)[O-])cc1)N1CCN(c2cc(=O)[nH]c(=O)n2Cc2ccc(OS(=O)(=O)c3cccc4cnccc34)cc2)CC1`, the IC50 was 32 nM.

Take `O=C(c1ccc(Cl)c(C(F)(F)F)c1)N1CCN(c2cc(=O)[nH]c(=O)n2Cc2ccc(OS(=O)(=O)c3cccc4cnccc34)cc2)CC1`: the IC50 turned out to be 18 nM.

Regarding `CC(C)(O)c1ccc(C(=O)N2CCC(n3cncc3-c3ccc(OS(=O)(=O)c4cccc5cnccc45)cc3)CC2)cc1`, the IC50 came to 4.7 nM.

`COc1ccc(C(=O)N2CCC(n3cncc3-c3ccc(OS(=O)(=O)c4cccc5cnccc45)cc3)CC2)cc1`: the IC50 stood at 64 nM.

Consider `CS(=O)(=O)c1ccc(C(=O)N2CCN(c3cc(=O)[nH]c(=O)n3Cc3ccc(OS(=O)(=O)c4cccc5cnccc45)cc3)CC2)cc1`, for which the IC50 was 50 nM.

With `CNC(=O)c1cccc(S(=O)(=O)Oc2ccc(-c3cncn3C3CCN(C(=O)c4ccc([N+](=O)[O-])cc4)CC3)cc2)c1`, the half-maximal inhibitory concentration (IC50) came to 26 nM.

As for `O=C(c1ccc(Cl)c(C(F)(F)F)c1)N1CCC(c2nc3cc(OS(=O)(=O)c4cccc5cnccc45)ccc3[nH]2)CC1`, the IC50 was found to be 210 nM.

On to `CS(=O)(=O)c1ccc(C(=O)N2CCC(n3cncc3-c3ccc(OS(=O)(=O)c4cccc5cnccc45)cc3)CC2)cc1`, for which the IC50 worked out at 0.32 nM.

For `CNC(=O)c1cccc(S(=O)(=O)Oc2ccc(-c3cncn3C3CCN(C(=O)c4ccc(N(C)C)cc4)CC3)cc2)c1`, the half-inhibitory concentration (IC50) came out at 22 nM.

Turning to `CN(C)c1ccc(C(=O)N2CCC(c3nc4cc(OS(=O)(=O)c5cccc6cnccc56)ccc4[nH]3)CC2)cc1`, the IC50 was 121 nM.

On to `O=C(NC1CC1)c1cccc(S(=O)(=O)Oc2ccc(-c3cncn3C3CCN(C(=O)c4ccc(Cl)c(C(F)(F)F)c4)CC3)cc2)c1`, for which the IC50 was found to be 58 nM.

For `N#Cc1cccc(S(=O)(=O)Oc2ccc(-c3cncn3C3CCN(C(=O)c4ccc(Cl)c(C(F)(F)F)c4)CC3)cc2)c1`, the IC50 amounted to 4.28 nM.

As to `CC(C)c1ccc(C(=O)N2CCC(n3cncc3-c3ccc(OS(=O)(=O)c4cccc5cnccc45)cc3)CC2)cc1`, the IC50 turned out to be 37 nM.

`CNC(=O)c1cccc(S(=O)(=O)Oc2ccc(-c3cncn3C3CCN(C(=O)c4ccc(Cl)c(C(F)(F)F)c4)CC3)cc2)c1`: the IC50 turned out to be 1.76 nM.

Regarding `CN(C)c1ccc(C(=O)N2CCC(n3cncc3-c3ccc(OS(=O)(=O)c4cccc(C#N)c4)cc3)CC2)cc1`, the IC50 stood at 10 nM.

As to `O=C(c1ccc(Cl)c(C(F)(F)F)c1)N1CCC(n2cncc2-c2ccc(OS(=O)(=O)c3cccc4cnccc34)cc2)CC1`, the IC50 worked out at 22 nM.

As to `O=C(c1ccc([N+](=O)[O-])cc1)N1CCC(n2cncc2-c2ccc(OS(=O)(=O)c3cccc4cnccc34)cc2)CC1`, the IC50 was found to be 8.29 nM.

Turning to `O=C(c1ccc([N+](=O)[O-])cc1)N1CCC(c2nc3cc(OS(=O)(=O)c4cccc5cnccc45)ccc3[nH]2)CC1`, the IC50 is 17 nM.

As to `N#Cc1cccc(S(=O)(=O)Oc2ccc(-c3cncn3C3CCN(C(=O)c4ccc([N+](=O)[O-])cc4)CC3)cc2)c1`, the IC50 is 13 nM.
